Converted amounts (≈) assume the structure as drawn. Where two headings read alike, the source gives them in different places.
Experiments:
[1] = system: Bacteroides fragilis; test: In vitro antimicrobial activity, microplate dilution MIC, Bacteroides fragilis; assay type: cell-based
Experimental: (§1) The in vitro antimicrobial activity of the compounds of the invention was determined by a microplate dilution procedure. Bacterial cultures were grown in Meuller Hintom II (cation supplemented) broth (S. aureus, S. faecalis, M. luteus, E. coli and P. aeruginosa), Brain Heart Infusion (BHI) broth supplemented with 10% heat inactivated horse serum (S. penumoniae) or BHI broth supplemented with 5 mcg/ml Hemin and 0.5 mcg/ml vitamin K (B. fragilis) at 37° C. for 18-24 hrs. The cultures were grown under aerobic conditions with the exception of B. fragilis which was grown 48 hrs. under anaerobic conditions (atmosphere 5% CO2, 10% H2 and 85% N2). Resulting suspensions were diluted 1/10 in the appropriate broth or used undiluted for the inoculum. Aqueous solutions of the compounds of the invention were solubilized in dimethylsulfoxide (DMSO) at the desired concentration and 200 mcl were dispensed into the first row of wells of a sterile microplate. The compounds were then serially diluted two-fold in DMSO to give a working stock concentration range plate. The last row of wells was left compound-free receiving only DMSO to serve as a growth control. Five mcl from each well of the working stock plate was transferred to corresponding wells of a separate plate containing 95 mcl/well of the appropriate broth. All dilutions were made with either an automated dilutor or manually. The wells of microplate containing the desired compound concentrations and compound-free growth controls in broth were then inoculated using the MIC 2000 inoculator which delivers 1.5 mcl/well to give a final inoculum level of 10^4 microorganism/well or 10^5 microorganism/ml. Plates were incubated as described above and read for visible growth. The minimal inhibitory concentration (MIC: expressed in mcg/ml) of each compound tested against each test microorganism was determined as the lowest concentration of compound which prevents visible microbial growth.

[2] = system: Micrococcus luteus; test: In vitro antimicrobial activity, microplate dilution MIC, Micrococcus luteus; assay type: cell-based
Experimental: as §1

[3] = system: bacteria; test: In vitro antimicrobial activity, overall comparison over the bacterial panel; assay type: cell-based; settings: for improved in vitro activity against named organisms / in vitro activity compared with prior art compounds P and Q: Table I MICs; for improved in vitro activity against named organisms: Staph. aureus, Strep. faecalis, Strep. pneumoniae
Experimental: as §1

[4] = system: Escherichia coli; test: In vitro antimicrobial activity, microplate dilution MIC, Escherichia coli; assay type: cell-based
Experimental: as §1

[5] = system: E. coli; test: In vivo antibacterial activity in female mice, E. coli infection; parameters: species or system Escherichia coli; settings: mouse; for ED50: Escherichia coli, 168 h, one-half hour postinfection, deaths over seven days; for in vivo activity against E. coli compared with compounds P and Q: Table II
Experimental: (§2) The in vivo antibacterial activity of the compounds of the invention was determined in female mice, 18-20 grams each. Aqueous solutions of the compounds to be tested were prepared by dissolving the free acid form in dilute sodium hydroxide and diluting the solution with distilled water to the desired concentration.
(§3) Cultures of E. coli were grown in brain heart infusion broth, and the mice were inoculated intraperitoneally with 0.5 ml of the bacterial test inoculum suspended in saline. Cultures of Staph. aureus were thawed from frozen pooled stocks and mixed with 5% mucin. A 0.5 ml preparation was used to infect mice by i.p. inoculation.
(§4) The mice were medicated subcutaneously (sc) or orally (po) with 0.5 ml of the test compound solution one-half hour postinfection. Deaths were recorded daily for seven days. Fifty percent protective dose values (PD50) were calculated using probit analyis.

[6] = system: Pseudomonas aeruginosa; test: In vitro antimicrobial activity, microplate dilution MIC, Pseudomonas aeruginosa; assay type: cell-based; settings: 10^5 microorganism/ml, read-out: MIC (minimal inhibitory concentration), PA
Experimental: as §1

[7] = system: Staphylococcus aureus; test: In vitro antimicrobial activity, microplate dilution MIC, Staphylococcus aureus; assay type: cell-based; settings: for MIC: Staphylococcus aureus, in vitro; for in vitro activity relative to compound P / in vitro activity relative to compound Q: from Table I MICs
Experimental: as §1

[8] = system: Staph. aureus; test: In vivo antibacterial activity in female mice, Staph. aureus infection; parameters: species or system Staphylococcus aureus; settings: mouse; for ED50: Staphylococcus aureus, 168 h, one-half hour postinfection, deaths over seven days
Experimental: as §2, §3, §4

[9] = system: Streptococcus faecalis; test: In vitro antimicrobial activity, microplate dilution MIC, Streptococcus faecalis; assay type: cell-based; settings: Enterococcus faecalis
Experimental: as §1

[10] = system: Streptococcus pneumoniae; test: In vitro antimicrobial activity, microplate dilution MIC, Streptococcus pneumoniae; assay type: cell-based
Experimental: as §1

[11] = Serum levels in monkeys after oral dosing; assay type: in vivo; settings: 25 mg/kg oral
[12] = 10^5 microorganism/ml, anaerobic, read-out: MIC (minimal inhibitory concentration), BF
[13] = 10^5 microorganism/ml, read-out: MIC (minimal inhibitory concentration), ML
[14] = 10^5 microorganism/ml, read-out: MIC (minimal inhibitory concentration), EC
[15] = po, read-out: PD50 (fifty percent protective dose), E. coli, po
[16] = sc, read-out: PD50 (fifty percent protective dose), E. coli, sc
[17] = 10^5 microorganism/ml, read-out: MIC (minimal inhibitory concentration), SA
[18] = po, read-out: PD50 (fifty percent protective dose), Staph. aureus, po
[19] = sc, read-out: PD50 (fifty percent protective dose), Staph. aureus, sc
[20] = Streptococcus faecalis, 10^5 microorganism/ml, read-out: MIC (minimal inhibitory concentration), SF
[21] = 10^5 microorganism/ml, 10% horse serum in BHI broth, read-out: MIC (minimal inhibitory concentration), SP
[22] = Strep. pneumoniae, read-out: MIC

Row | SMILES | MIC [1, 12] [µg/mL] | MIC [2, 13] [µg/mL] | MIC [4, 14] [µg/mL] | ED50 [5, 15] [mg/kg] | ED50 [5, 16] [mg/kg] | in vivo activity against E. coli compared with compounds P and Q [5] | MIC [6] [µg/mL] | MIC [7, 17] [µg/mL] | ED50 [8, 18] [mg/kg] | ED50 [8, 19] [mg/kg] | MIC [9, 20] [µg/mL] | MIC [10, 21] [µg/mL] | also measured
1 | Cc1cc(-c2c(F)c(F)c3c(=O)c(C(=O)O)cn4c3c2OC[C@@H]4C)cc(C)n1 [A, (S)-10-(2,6-Dimethyl-4-pyridinyl)-8,9-difluoro-3-methyl-7-oxo-2,3-dihydro-7H-pyrido[1,2,3-de][1,4]benzoxazine-6-carboxylic acid] | 1 (≈ 2.59 µM) | 1 (≈ 2.59 µM) | 0.125 (≈ 0.324 µM) | 12.3 | 4.7 | approximately equal in activity to compound Q and slightly less active than compound P against E. coli | 8 (≈ 20.7 µM) | 0.016 (≈ 0.0414 µM) | 0.13 | 0.05 | 0.125 (≈ 0.324 µM) | 0.06 (≈ 0.155 µM) | improved in vitro activity against named organisms [3]: improved activity against Staph. auerus, Strep. faecalis and Strip. pneumoniae
2 | Cc1cc(-c2c(F)cc3c(=O)c(C(=O)O)cn4c3c2OC[C@@H]4C)cc(C)n1 [B, (S)-10-(2,6-Dimethyl-4-pyridinyl)-9-fluoro-3-methyl-7-oxo-2,3-dihydro-7H-pyrido[1,2,3-de][1,4]benzoxazine-6-carboxylic acid] | 0.25 (≈ 0.679 µM) | 0.25 (≈ 0.679 µM) | 0.03 (≈ 0.0814 µM) | 3 | 1.4 | approximately equal in activity to compound Q and slightly less active than compound P against E. coli | 4 (≈ 10.9 µM) | 0.008 (≈ 0.0217 µM) | 0.03 | 0.02 | 0.06 (≈ 0.163 µM) | 0.03 (≈ 0.0814 µM) | in vitro activity compared with prior art compounds P and Q [3]: substantilly more active than the prior art compounds (P and Q) against all of the organisms except E. coli and P. aeruginosa; serum levels [11]: high and prolonged serum levels; half-life ([11]; monkey, serum): 960 min; Cmax ([11]; monkey, serum, read-out: maximum concentration (serum)): 25000 ng/mL; Tmax ([11]; monkey, serum, read-out: time of maximum concentration (serum)): 3.5 h; in vitro activity relative to compound P ([7]; Staph. aureus): thirty times as active as compound P; in vitro activity relative to compound Q ([7]; Staph. aureus): four times as active as compound Q
3 | CC[C@H]1COc2c(-c3cc(C)nc(C)c3)c(F)cc3c(=O)c(C(=O)O)cn1c23 [Compound C, (S)-10-(2,6-Dimethyl-4-pyridinyl)-9-fluoro-3-ethyl-7-oxo-2,3-dihydro-7H-pyrido[1,2,3-de][1,4]benzoxazine-6-carboxylic acid] | 0.5 (≈ 1.31 µM) | 0.5 (≈ 1.31 µM) | 0.016 (≈ 0.0418 µM) | 32.9 | 8.8 | – | 4 (≈ 10.5 µM) | < 0.004 | 0.41 | 0.2 | 0.125 (≈ 0.327 µM) | 0.06 (≈ 0.157 µM) | improved in vitro activity against named organisms [3]: improved activity against Staph. auerus, Strep. faecalis and Strip. pneumoniae; more active than compound P against Staph. aureus ([8]; subcutaneous): fifteen; more active than compound Q against Staph. aureus ([8]; subcutaneous): three times more active
4 | Cc1cc(-c2c(F)cc3c(=O)c(C(=O)O)cn4c3c2SC[C@@H]4C)cc(C)n1 [D, (S)-10-(2,6-Dimethyl-4-pyridinyl)-9-fluoro-3-methyl-7-oxo-2,3-dihydro-7H-pyrido[1,2,3-de][1,4]benzothiazine-6-carboxylic acid] | 0.06 (≈ 0.156 µM) | 0.06 (≈ 0.156 µM) | 0.06 (≈ 0.156 µM) | 2.6 | 1.5 | approximately equal in activity to compound Q and slightly less active than compound P against E. coli | 2 (≈ 5.2 µM) | 0.004 (≈ 0.0104 µM) | 0.03 | 0.03 | 0.06 (≈ 0.156 µM) | 0.016 (≈ 0.0416 µM) | in vitro activity compared with prior art compounds P and Q [3]: substantilly more active than the prior art compounds (P and Q) against all of the organisms except E. coli and P. aeruginosa; in vitro activity relative to compound P ([7]; Staph. aureus): sixty times as active as compound P; in vitro activity relative to compound Q ([7]; Staph. aureus): eight times as active as compound Q
5 | Cc1cc(-c2c(F)c(SCc3ccccc3)c3c(=O)c(C(=O)O)cn4c3c2OC[C@@H]4C)cc(C)n1 [Example 4, (S)-8-(Benzylthio)-10-(2,6-dimethyl-4-pyridinyl)-9-fluoro-3-methyl-7-oxo-2,3-dihydro-7H-pyrido[1,2,3-de][1,4]-benzoxazine-6-carboxylic acid] | – | – | – | – | – | – | – | – | – | – | – | – | MIC ([1]; B. fragilis, read-out: MIC): 32 µg/mL (≈ 65.2 µM); MIC ([2]; M. luteus, read-out: MIC): 32 µg/mL (≈ 65.2 µM); antibacterial activity in vitro ([3]; in words): appreciable antibacterial activity in vitro; MIC ([4]; E. coli, read-out: MIC): 8 µg/mL (≈ 16.3 µM); MIC ([7]; Staph. aureus, read-out: MIC): 1 µg/mL (≈ 2.04 µM); MIC ([9]; Strep. faecalis, read-out: MIC): 32 µg/mL (≈ 65.2 µM); MIC [10, 22]: 8 µg/mL (≈ 16.3 µM)
6 | CCOC(=O)c1cn2c3c(c(-c4cc(C)nc(C)c4)c(F)cc3c1=O)OC[C@H]2C [Example 6(e), Ethyl (R)-10-(2,6-dimethyl-4-pyridinyl)-9-fluoro-3-methyl-7-oxo-2,3-dihydro-7H-pyrido[1,2,3-de][1,4]benzoxazine-6-carboxylate] | – | – | – | – | – | – | – | – | – | – | – | – | MIC ([1]; B. fragilis, read-out: MIC): 16 µg/mL (≈ 40.4 µM); antibacterial activity in vitro ([3]; in words): substantial antibacterial activity in vitro; in vitro activity compared with the (S)-isomer (compound B) ([3]; in words): less active than the (S)-isomer (compound B); MIC ([4]; E. coli, read-out: MIC): 1 µg/mL (≈ 2.52 µM); MIC ([7]; Staph. aureus, read-out: MIC): 0.25 µg/mL (≈ 0.631 µM); MIC ([9]; Strep. faecalis, read-out: MIC): 4 µg/mL (≈ 10.1 µM); MIC [10, 22]: 1 µg/mL (≈ 2.52 µM)
7 | CC1COc2c(N3CCN(C)CC3)c(F)cc3c(=O)c(C(=O)O)cn1c23 (stereo not shown) [P, 9-Fluoro-3-methyl-10-(4-methyl-1-piperazinyl)-7-oxo-2,3-dihydro-7H-pyrido[1,2,3-de][1,4]benzoxazine-6-carboxylic acid, reference compound] | 0.5 (≈ 1.38 µM) | 2 (≈ 5.53 µM) | 0.008 (≈ 0.0221 µM) | 1.17 | 0.48 | – | 0.5 (≈ 1.38 µM) | 0.25 (≈ 0.692 µM) | 6.5 | 3 | 2 (≈ 5.53 µM) | 0.25 (≈ 0.692 µM) | –
8 | CCn1cc(C(=O)O)c(=O)c2cc(F)c(-c3cc(C)nc(C)c3)cc21 [Q, 7-(2,6-Dimethyl-4-pyridinyl)-1-ethyl-6-fluoro-1,4-dihydro-4-oxo-3-quinolinecarboxylic acid, reference compound] | 2 (≈ 5.88 µM) | 0.5 (≈ 1.47 µM) | 0.06 (≈ 0.176 µM) | 8.24 | 5.39 | – | 4 (≈ 11.8 µM) | 0.03 (≈ 0.0881 µM) | 1.38 | 0.71 | 0.25 (≈ 0.735 µM) | 0.25 (≈ 0.735 µM) | –

Source: patent publication US4839355A, “Tricyclic-pyridinylquinoline compounds, their preparation and use” (Sterling Drug Inc., priority 1988, dated 1989)
